Earlier results on one molecule are cited in patent US5952465A, “Polypeptides that include conformation-constraining groups which flank a protein-protein interaction site” (Virginia Commonwealth University, priority 1998, dated 1999).

Where a SMILES comes first, the peptide text is derived from it.

In the data set the test system is receptors of sweet tasting papillae. The conditions noted are these: comparison substance.

Regarding `COC(=O)[C@H](Cc1ccccc1)NC(=O)[C@@H](N)CC(=O)O` [aspartame] (H-Asp-Phe-OMe), the “Sweetness relative to sugar” value is 160 times sweeter than sugar.
